In US11813235B2, “Guanfacine as an anti-virulence agent” (priority 2019, dated 2023):
Where two headings read alike, the source gives them in different places. *1 amine or outer side, *2 acyl side, *3 side chain or, on linkers, in order; H or OH if unused. Where a SMILES comes first, the peptide text is derived from it. Bridges are numbered along the chain shown (N, C = ends). [ ]: non-standard residue; d: D form. The star is where a group is joined. hTyr(3S-OH,4S-OH,3'-OSO3H) = N[C@H](C(=O)O)[C@H](O)[C@@H](O)c1ccc(O)c(OS(=O)(=O)O)c1; Orn(4R-OH,5R-OH) = O=C([C@H](C[C@@H](O)[C@@H](O)N[*:3])N[*:1])[*:2]; Pro(3S-OH,4S-Me) = C[C@H]1CN[C@H](C(=O)O)[C@H]1O; X1 = CCCCCOc1ccc(-c2cc(-c3ccc(C(=O)*)cc3)no2)cc1; Gln(3R-OH) = NC(=O)C[C@@H](O)[C@H](N)C(=O)O; Hyp = O=C(O)[C@@H]1C[C@@H](O)CN1

Tests used:
P. aeruginosa [1] = format: cell-based, Pseudomonas aeruginosa
Experimental: Growth and high-throughput LacZ assays were optimized in a 384-well plate format using three reporter strains In order to identify down-regulators of virulence, rather than growth-inhibitors of P. aeruginosa, special care was taken to eliminate compounds that (i) interfered with the LacZ assay and (ii) affected P. aeruginosa growth. […] Growth-inhibition assays using the small molecule library were performed by monitoring optical density at 600 nm (OD600 nm).
(§6) In various examples, bacterial growth was carried out in LB supplemented with 50 mM Mops, pH 7.0 (hereafter, LB-Mops). To commence a screen, a P. aeruginosa reporter strain from an LB agar plate was used to inoculate 5 mL of LB-Mops medium in a sterile 14-mL bacterial culture tube. The culture was grown for 4 h at 30° C./250 rpm. After 4 h, its optical density (OD600 nm) was determined on a Cary 60 UV-visible spectrophotometer (Agilent). The culture was diluted into 100 mL of LB-Mops to give a final OD600 nm of 0.05. Subsequently a volume of 50 μL was dispensed into each of six sterile, 384 well plates (Corning) using a Multiflo Microplate Dispenser (Biotek). Candidate elicitors were added to the plates using a CyBi-Well automated liquid transfer robot (CyBio). Each well was supplemented with 0.2 μL of a compound from the Enzo Scientific FDA approved drug library, which comprises 770 molecules. The compounds were dispensed into columns 3 through 22 on each plate. Columns 2 and 23 contained the negative control (the reporter strain being tested in the absence of any compounds), and columns 1 and 24 contained the positive control (e.g., strain phzB2-lacZ). Each compound was tested in duplicate, using three 384-well plates per set. Each plate was covered with a Breathe-Easy sealing membrane (Sigma) and cultured at 30° C./250 rpm in a Multitron Shaker (ATR) equipped with green sealing tray. To maintain constant humidity, several 1-L Erlenmeyer flasks containing 200 mL of sterile water were also placed inside the shaker. After 12 h, the plates were removed from the shaker. The β-Glo reagent (Promega) was used to monitor LacZ activity. The reagent was diluted 3:1 with water. Then each well was supplemented with 15 μL of the diluted β-Glo reagent using the Multiflo automated dispenser, manually shaken to mix, and incubated in the dark at room temperature for 10 min. Total end-point luminescence was then determined on a Synergy H1MF plate reader (Biotek).

[2] = system: virulence factor expression (seven lacZ reporter strains); format: cell-based, Pseudomonas aeruginosa
From the text: Seven reporter strains from the sequence-verified transposon mutant library generated by Manoil and colleagues were identified, in which transposons carrying a promoterless lacZ reporter were inserted into the genome of P. aeruginosa. The strains selected carried an in-frame lacZ reporter in aprD (alkaline protease), pqsA (PQS biosynthesis), hcnB (HCN biosynthesis), algK (alginate biosynthesis), phzB2 and phzF1 (phenazine biosynthesis from two different gene clusters), and plcH (phospholipase C). […] By carrying out an ex vivo LacZ assay, all LacZ assay inhibitors in a library of small molecules were identified. Growth-inhibition assays using the small molecule library were performed by monitoring optical density at 600 nm (OD600 nm).
After a defined growth period, the expression of each of the seven reporter strains was determined using high-throughput LacZ assays. The LacZ activity was normalized relative to the negative control. The log10 of the fold-change for each of the seven strains were combined and colorized to produce an anti-virulence heat-map.
as §6

phzF1-lacZ = experiment: microbe, parasite or virus in culture; format: cell-based
[3] = system: P. aeruginosa phzF1-lacZ strain; experiment: Dose-dependent growth inhibition of phzF1-lacZ strain by antibiotics; format: cell-based
P. aeruginosa [4] = experiment: Growth curve of P. aeruginosa in absence and presence of guanfacine; format: cell-based, Pseudomonas aeruginosa; conditions: 10, 20, 40 and 80 μM guanfacine
Experimental: FIG. 2 is a graph showing the growth curve of P. aeruginosa in the absence (DMSO) and presence of guanfacine in various concentrations (10 μM, 20 μM, 40 μM, and 80 μM).

[5] = system: seven virulence genes (aprD, pqsA, hcnB, algK, phzB2, phzF1, plcH lacZ reporters); experiment: LacZ assay in flask cultures, seven virulence reporter strains; format: cell-based, Pseudomonas aeruginosa; conditions: relative to untreated control
From the text: FIG. 3A is a graph showing the transcriptional down-regulation of seven virulence genes by guanfacine relative to an untreated control.
The effect of guanfacine on the expression of virulence factors was verified in flask cultures. […].
In one example, reporter genes for the various virulence factors encoded in the P. aeruginosa genome were selected. Seven reporter strains from the sequence-verified transposon mutant library generated by Manoil and colleagues were identified, in which transposons carrying a promoterless lacZ reporter were inserted into the genome of P. aeruginosa. The strains selected carried an in-frame lacZ reporter in aprD (alkaline protease), pqsA (PQS biosynthesis), hcnB (HCN biosynthesis), algK (alginate biosynthesis), phzB2 and phzF1 (phenazine biosynthesis from two different gene clusters), and plcH (phospholipase C). […]
Assays were carried out in 50 mL Erlenmeyer flasks containing 10 mL of LB-Mops. […] After 4 h, OD600 nm was determined, and the culture subsequently diluted to an initial OD600 nm of 0.05 in a 50 mL Erlenmeyer flask. […] End-point luminescence was determined on a Biotek H1MF plate reader. To obtain IC50 values, the averaged luminescence output (used to determine LacZ activity) was plotted against the log of the concentration of the inhibitor. […]

phzB2-lacZ = phzB2-lacZ reporter dose-response; format: cell-based; conditions: Pseudomonas aeruginosa, read-out: IC50, concentration at which half-maximal down-regulation was observed (phzB2 reporter)
Experimental: FIG. 3B is a graph showing the dose-response of phzB2-lacZ as a function of guanfacine concentration.
Assays were carried out in 50 mL Erlenmeyer flasks containing 10 mL of LB-Mops. For LacZ assays, an appropriate reporter strain from an LB agar plate was used to inoculate 5 mL of LB-Mops in a sterile 14 mL bacterial culture tube. After 4 h, OD600 nm was determined, and the culture subsequently diluted to an initial OD600 nm of 0.05 in a 50 mL Erlenmeyer flask. The compound of interest was added from stock concentrations generated in DMSO. A control containing only DMSO was also included. Assays were typically carried out in three biological replicates. A positive control culture, phzB2-lacZ in the absence of any compounds, was grown in parallel as well. The cultures were grown at 30° C./200 rpm. After 12 h, 65 μL was removed from each culture flask and dispensed into a sterile, white 96-well plate (Corning). Each well was supplemented with 35 μL of 3:1 diluted β-Glo reagent (Promega). The plate was incubated in the dark at room temperature for 10 minutes. End-point luminescence was determined on a Biotek H1MF plate reader. To obtain IC50 values, the averaged luminescence output (used to determine LacZ activity) was plotted against the log of the concentration of the inhibitor. The data were fit to a dose-response curve using GraphPad Prism software.

pyocyanin biosynthesis = experiment: Pyocyanin quantification; format: cell-based, Pseudomonas aeruginosa; conditions: treated vs untreated cultures, concentration-dependent
From the text: FIG. 3C is a graph showing the dose-dependent reduction of pyocynanin biosynthesis as a function of guanfacine concentration.
The effects of guanfacine were probed further by measuring the levels of pyocyanin, a downstream product of phenazine. Pyocyanin is the blue secondary metabolite responsible for both the toxicity and characteristic color of P. aeruginosa. […]. Without being bound to a particular theory, the likely cause of the incomplete suppression of pyocyanin synthesis is the existence of two independently-expressed copies of the phenazine biosynthetic operon. Nonetheless, the direct measurement of pyocyanin corroborates results observed with the reporter strains. The production of both phenazines and pyocyanin is known to be regulated by the las and pqs QS circuits. Specifically, in response to 3O-C12-HSL, LasR induces expression of the pqs operon and the LysR-type regulator, PqsR. The PQS/PqsR complex then activates phenazine and pyocyanin synthesis. To verify that guanfacine acts upstream of both products, levels of quinolines were directly measured. […].
(§1) Pyocyanin quantification. Pyocyanin quantification was carried by a method adapted from Essar et al.[17] […] 120 μL of this extract was transferred to a clear 96-well plate and the OD520 nm was recorded using a plate reader. […]

HHQ and PQS production = experiment: HPLC-MS quantification of HHQ and PQS in wt P. aeruginosa; format: cell-based, Pseudomonas aeruginosa
Experimental: FIG. 3D is a graph showing the relative quantification of HHQ and PQS produced by wt P. aeruginosa as a function of guanfacine concentration, normalized to an untreated control.
[…]. This HPLC analysis of cell-free supernatants of P. aeruginosa in the absence (solid lines) or presence (dashed lines) of 40 μM guanfacine. Peaks corresponding to HHQ and PQS are labeled, peaks of other quinolones are indicated with an asterisk.
The effects of guanfacine were probed further by measuring the levels of pyocyanin, a downstream product of phenazine. Pyocyanin is the blue secondary metabolite responsible for both the toxicity and characteristic color of P. aeruginosa. […]. […] To verify that guanfacine acts upstream of both products, levels of quinolines were directly measured. […]
(§2) HPLC-MS analysis. Direct detection and quantification of HHQ and PQS was carried out by growing wt P. aeruginosa under identical conditions as described above (for growth in 50 mL Erlenmeyer flasks). […] The organic layer was separated, dried completely in a speedvac concentrator, resuspended in 0.5 mL of MeOH, and analysed on an Agilent HPLC-MS consisting of a liquid autosampler, a 1260 Infinity Series HPLC system coupled to a photodiode array detector and a 6120 Series ESI mass spectrometer. […]

pelB-lacZ = pelB-lacZ reporter dose-response; format: cell-based, Pseudomonas aeruginosa
From the text: (§3) FIG. 3F is a graph of the dose-response of the expression of pelG and pelB, involved in biofilm production, as a function of guanfacine concentration, using the appropriate LacZ reporter strain.
(§4) Another important virulence determinant in P. aeruginosa is biofilm formation. A cluster of genes, termed pel regulated by the las QS system, have been established as responsible for producing the biofilm matrix exopolysaccharide. Two reporter strains carrying translational lacZ fusions (pelB-lacZ and pelG-lacZ) were subjected to guanfacine dose-response analysis. […].
(§5) Assays were carried out in 50 mL Erlenmeyer flasks containing 10 mL of LB-Mops. For LacZ assays, an appropriate reporter strain from an LB agar plate was used to inoculate 5 mL of LB-Mops in a sterile 14 mL bacterial culture tube. After 4 h, OD600 nm was determined, and the culture subsequently diluted to an initial OD600 nm of 0.05 in a 50 mL Erlenmeyer flask. The compound of interest was added from stock concentrations generated in DMSO. A control containing only DMSO was also included. Assays were typically carried out in three biological replicates. […] End-point luminescence was determined on a Biotek H1MF plate reader. To obtain IC50 values, the averaged luminescence output (used to determine LacZ activity) was plotted against the log of the concentration of the inhibitor. […]

pelG-lacZ = pelG-lacZ reporter dose-response; format: cell-based, Pseudomonas aeruginosa
From the text: as §3, §4, §5

[6] = system: pmrB::Tn mutant (QseC homolog); experiment: HHQ and pyocyanin production in pmrB::Tn mutant; format: cell-based, Pseudomonas aeruginosa; conditions: pmrB::Tn cultures supplemented with guanfacine
Experimental: FIG. 4 is a graph of the quantification of the levels of HHQ (black bars) and pyocyanin (white bars) in guanfacine-treated and untreated cultures.
To explore this idea, a mutant carrying a transposon insertion in pmrB (pmrB::Tn) was tested. Both wt and mutant strains were grown in the presence of guanfacine or DMSO (control), and the production of HHQ was quantified directly using HPLC-MS, while pyocyanin synthesis was assessed as previously reported. […] In the absence of the sensor His kinase, guanfacine was unable to exert its down-regulatory effect, especially with pyocyanin where significant production remained.
as §2, §1

[7] = relative to the untreated strain, OD600 nm after 12 h
[8] = LacZ activity normalized to negative control, seven reporter strains
[9] = Pseudomonas aeruginosa; read-out: EC50, concentration at which induction of phzF1-lacZ was half-maximal
[10] = Pseudomonas aeruginosa, PHZF1LACZSTRAIN; read-out: growth-inhibitory IC50

O=C(N[C@H](CO)[C@H](O)c1ccc([N+](=O)[O-])cc1)C(Cl)Cl [Chloramphenicol]
% Growth Inhibition (P. aeruginosa [1]; [7]): 64%

[H]/N=C(\N/C(=N/[H])NCCCCCCNC(=N)NC(=N)Nc1ccc(Cl)cc1)Nc1ccc(Cl)cc1 [Chlorhexidine]
% Growth Inhibition (P. aeruginosa [1]; [7]): 96%

C[C@]12CC[C@@H]3c4ccc(O)cc4CC[C@H]3[C@@H]1CC[C@@H]2O [Estradiol]
% Growth Inhibition (P. aeruginosa [1]; [7]): 73%

CCCCCCCCc1ccc(CCC(N)(CO)CO)cc1 [Fingolimod]
% Growth Inhibition (P. aeruginosa [1]; [7]): 76%

CCCCCOc1ccc(-c2cc(-c3ccc(C(=O)N[C@H]4C[C@@H](O)[C@@H](O)NC(=O)[C@@H]5[C@@H](O)[C@@H](C)CN5C(=O)[C@H]([C@H](O)CC(N)=O)NC(=O)[C@H]([C@H](O)[C@@H](O)c5ccc(O)c(OS(=O)(=O)O)c5)NC(=O)[C@@H]5C[C@@H](O)CN5C(=O)[C@H]([C@@H](C)O)NC4=O)cc3)no2)cc1 [Micafungin] (X1-[Orn(4R-OH,5R-OH)]T[Hyp][hTyr(3S-OH,4S-OH,3'-OSO3H)][Gln(3R-OH)][Pro(3S-OH,4S-Me)]; lactam 1-C)
% Growth Inhibition (P. aeruginosa [1]; [7]): 54%

CCN1CCN(C(=O)N[C@@H](C(=O)N[C@@H]2C(=O)N3[C@@H]2SC(C)(C)[C@@H]3C(=O)O)c2ccccc2)C(=O)C1=O [Piperacillin]
effect on virulence factor expression in screen [2, 8]: further enhance the expression of virulence factors
EC50 (phzF1-lacZ; [9]): 8.4 µM
IC50 [3, 10]: 6.4 µM

CC/C(=C(\c1ccccc1)c1ccc(OCCN(C)C)cc1)c1ccccc1 [Tamoxifen]
% Growth Inhibition (P. aeruginosa [1]): 57%

COc1cc(Cc2cnc(N)nc2N)cc(OC)c1OC [Trimethoprim]
% Growth Inhibition (P. aeruginosa [1]): 73%

CN1CCc2cccc3c2[C@H]1Cc1ccc(O)c(O)c1-3 [apomorphine]
effect on virulence factor expression in screen [2]: A similar effect

CO/N=C(\C(=O)N[C@@H]1C(=O)N2C(C(=O)O)=C(C[N+]3(C)CCCC3)CS[C@H]12)c1csc(N)n1 [cefepime]
IC50 [3, 10]: 4.6 µM

C/C=C/C1=C(C(=O)O)N2C(=O)[C@@H](NC(=O)[C@H](N)c3ccc(O)cc3)[C@H]2SC1 [cefprozil]
EC50 (phzF1-lacZ; Pseudomonas aeruginosa, read-out: EC50, concentration at which induction of phzF1-lacZ was half-maximal): 58 µM
IC50 ([3]; Pseudomonas aeruginosa, PHZF1LACZSTRAIN, read-out: growth-inhibitory IC50): 362 µM

CC(C)(O/N=C(\C(=O)N[C@@H]1C(=O)N2C(C(=O)O)=C(C[n+]3ccccc3)CS[C@H]12)c1csc(N)n1)C(=O)O [ceftazidime]
EC50 (phzF1-lacZ; [9]): 21 µM
IC50 [3, 10]: 53 µM

N=C(N)NC(=O)Cc1c(Cl)cccc1Cl [guanfacine]
growth inhibition (growth curve versus DMSO control) (P. aeruginosa [4]): not growth-inhibitory
reduction of reporter expression across seven reporter strains [5]: 2-9 fold
IC50 (phzB2-lacZ): 19 µM
reduction in the levels of pyocyanin (pyocyanin biosynthesis): 1.5 fold
levels of HHQ, PQS and several other quinolines (HHQ and PQS production): decreased levels
fold less PQS relative to DMSO-treated control (HHQ and PQS production; 40 μM guanfacine): 4.5 fold
suppression of pelB expression (pelB-lacZ; 80 μM guanfacine): Nearly complete suppression
IC50 (pelB-lacZ; Pseudomonas aeruginosa, pelB-lacZ): 5.8 µM
suppression of pelG expression (pelG-lacZ; 80 μM guanfacine): Nearly complete suppression
IC50 (pelG-lacZ; Pseudomonas aeruginosa, pelG-lacZ): 3.1 µM
effect on HHQ and pyocyanin production in pmrB::Tn cultures [6]: no further effect
effect on virulence factor expression in screen [2, 8]: A similar effect

CC(C)Cc1ccc(C(C)C(=O)O)cc1 (stereo not drawn) [ibuprofen]
effect on virulence factor expression in screen [2, 8]: down-regulated virulence factor expression

CC(C(=O)O)c1cccc(C(=O)c2ccccc2)c1 (stereo not drawn) [ketoprofen]
effect on virulence factor expression in screen [2]: down-regulated virulence factor expression

COc1ccc2cc([C@H](C)C(=O)O)ccc2c1 [naproxen]
effect on virulence factor expression in screen [2]: down-regulated virulence factor expression

Cc1ccc(C(=O)c2cc(O)c(O)c([N+](=O)[O-])c2)cc1 [tolcapone]
effect on virulence factor expression in screen [2, 8]: A similar effect

Colistin
% Growth Inhibition (P. aeruginosa [1]; [7]): 96%
